Measured values taken from US7964587B2, “Tocopherol and tocotrienol aerosols” (Children's Hospital & Research Center at Oakland, priority 2002, dated 2011).
Where two headings read alike, the source gives them in different places.

Key:
PGE2 = assay: inhibition of PGE2, apparent IC50s of vitamin E forms; type: cell-based; settings: for inhibitory effect on PGE2: e.g. ref. 10
[1] = plasma and exudate concentrations of alpha-T, gamma-T and gamma-CEHC in the air-pouch model; settings: for gamma-T concentration in the collected exudate: 20-h after carrageenan
Procedure: Carrageenan-induced inflammation in the air-pouch model was performed and evaluated substantially as previously described (14). Alpha-T and gamma-T were measured in plasma and exudate as previously described (12). Gamma-CEHC was quantified essentially as previously described (13).
To evaluate the relative bio-availability of the administrated compounds, we measured plasma and exudate concentrations of gamma-T and alpha-T as well as plasma gamma-CEHC.

[2] = tested on: carrageenan-induced inflammation; assay: carrageenan-induced inflammation in the air-pouch model; type: in vivo, rat
Procedure: For this experimental protocol, we adapted the methods recited in the Experimental Example reported below. […] Formulations were administered as described below, wherein the recited tocopherol was dissolved in tocopherol-stripped corn oil, and continuously administrated by gavage for three days before the induction of inflammation. The PGE2 component of the formulation was empirically varied and adjusted to provide a minimized synergistic concentration. For example, aspirin formulations were adjusted to 50 or 100 mg/Kg with gamma-T at 30 mg/Kg. In controls evaluating the effects of aspim or gamma-T alone, we increased the aspririn dosage to 150 mg/Kg and gamma-T to […], respectively.
Gamma-CEHC was quantified essentially as previously described (13).
For the measurement of PGE2, LTB4 and 8-isoprostane, the exudate fluid was mixed vigorously with 2 mL methanol to precipitate proteins, and with 5 mL hexane to remove lipids. Following a brief centrifugation and aspiration of the hexane layer, the methanol layer was removed and evaporated under N2. PGE2, LTB4 and 8-isoprostane were measured using the corresponding ELISA kits from Cayman Chemicals (Ann Arbor, Mich.). TNF-a and lactate dehydrogenase (LDH) in the exudate were measured directly using an ELISA kit from R&D (Minneapolis, Minn.) and an analytical kit from Roche (Indianapolis, Ind.), respectively.
The total amount of nitrate and nitrite in the exudate was measured using the Model 280 nitric oxide analyzer (NOA™) (Sievers Instruments, Inc.; Boulder, Colo.). Nitrite and nitrate in the exudate were reduced by vanadium (III) to nitric oxide, which then was measured by a red-sensitive photomultiplier tube after being converted by ozone to chemiluminescent reactive nitrogen dioxide. Nitrite and nitrate were quantified based on a standard curve from nitrate that was established under the identical conditions.
Carrageenan-induced inflammation in the air-pouch model is commonly used to evaluate the pharmaceutical potency of anti-inflammatory drugs (14). […] These cells play a key role in the inflammatory response (11, 14, 15). A single injection of carrageenan caused a potent localized inflammation, as indicated by a marked increase in white cell infiltration, eicosanoid formation and tissue damages (11). To study the effect of gamma-CEHC on eicosanoid synthesis and neutrophil infiltration, it (1 mg/ml, 2 ml in PBS) was injected directly into the air pouch right before the injection of carrageenan. Since the retention of gamma-CEHC is relatively short (16), its effect was evaluated at 6 h after the induction of inflammation.
To test the effects of tocopherols, alpha-T or gamma-T, dissolved in tocopherol-stripped corn oil, was continuously administrated by gavage for three days before the induction of inflammation. Effects were evaluated at 20 h after carrageenan injection, when cell infiltration had reached a maximum in the pouch.

normal epithelial cells = assay: effect on normal epithelial cells; type: cell-based
[3] = tested on: human prostate epithelial cancer cells; assay: anti-proliferative effect on prostate cancer cells; type: cell-based
[4] = cited from earlier work
[5] = tested on: lung epithelial cancer cells; assay: anti-proliferative effect on lung cancer cells; type: cell-based, human
[6] = tested on: carrageenan-induced inflammation; settings: cited from earlier work
[7] = 1 mg/ml, 2 ml in PBS injected into the air pouch, 6 h
[8] = 33 mg/kg by gavage for three days, 20 h after carrageenan, P<0.05

## CC(C)=CCC/C(C)=C/CC/C(C)=C/CC[C@]1(C)CCc2cc(O)c(C)c(C)c2O1 [gamma-tocotrienol]
PGE2
  IC50: 1 to 2.5 µM

## Cc1cc(O)c(C)c2c1O[C@](C)(CCC[C@H](C)CCC[C@H](C)CCCC(C)C)CC2 [beta-T, beta-tocopherol, reference compound]
PGE2
  inhibitory effect on PGE2: weak to no inhibitory effect

## Cc1c(O)cc2c(c1C)OC(C)(CCC(=O)O)CC2 (centres unmarked) [gamma-CEHC, 2,7,8-trimethyl-2-(b-carboxyethyl)-6-hydroxychroman]
[1]; rat, in vivo
  plasma concentration of gamma-CEHC: Nano-molar concentrations
  plasma gamma-CEHC level relative to plasma gamma-T: less than 10%
[2]; [7]
  inhibition of LTB4: inhibited LTB4 and neutrophil infiltration, though non-significantly
  inhibition of neutrophil infiltration: inhibited LTB4 and neutrophil infiltration, though non-significantly
[2]; 1 mg/ml, 2 ml in PBS injected into the air pouch, 6 h after induction, P<0.05
  reduction of PGE2 in the pouch: ~29%

## Cc1c(O)cc2c(c1C)O[C@](C)(CCC[C@H](C)CCC[C@H](C)CCCC(C)C)CC2 [gamma-T, gamma-tocopherol]
Normal epithelial cells
  effect on normal epithelial cells: had no effect
[1]; 33 mg/kg
  elevation of gamma-T in exudate fluid vs corn-oil fed controls: ~10 fold
  gamma-T concentration in exudate, corresponding molar concentration: ~10 µM
  increase of gamma-T in the plasma vs corn-oil fed controls: 3 fold
  gamma-T concentration in the collected exudate: 93.3 nmol/gprotein
[1]; 33 mg/kg gamma-T
  ratio of gamma-T to alpha-T in the exudate: ~0.3
[1]; 100 mg/kg
  elevation of gamma-T in exudate fluid vs corn-oil fed controls: ~20 fold
  gamma-T concentration in exudate, corresponding molar concentration: ~20 µM
  increase of gamma-T in the plasma vs corn-oil fed controls: 5 fold
  gamma-T concentration in the collected exudate: 193 nmol/gprotein
[1]; 100 mg/kg gamma-T
  ratio of gamma-T to alpha-T in the exudate: ~0.7
[1]; 33 or 100 mg/kg gamma-T
  ratio of gamma-T to alpha-T in the plasma: ~0.15
[1]; rat, in vivo
  effect of gamma-T administration on alpha-T levels: did not significantly affect
[3]
  anti-proliferative effect: showed anti-proliferative effects
[4]
  fraction of gamma-T converted to gamma-CEHC: ≤ 50%
PGE2
  IC50: 5 to 10 µM
[5]
  anti-proliferative effect: showed anti-proliferative effects
[2]; 33 mg/kg
  effect on total nitrate and nitrite: had no effect
[2]; [8]
  reduction of LTB4: 70%
  reduction of PGE2: 46%
[2]; 33 mg/kg, P<0.05
  reduction of 8-isoprostane in the pouch (lipid peroxidation): ~57%
[2]; 33 mg/kg, non-significant, P=0.2
  attenuation of the loss of food consumption: 20%
[2]; 33 mg/kg, non-significant, P=0.29
  inhibition of TNF-a: ~51%
[2]; 100 mg/kg by gavage for three days, 20 h, P<0.05
  inhibitory potency against PGE2: 51%
[2]; 100 mg/kg, P<0.03
  attenuation of the loss of food consumption: 30%
[2]; 100 mg/kg, P<0.05
  reduction of 8-isoprostane in the pouch (lipid peroxidation): ~57%
[2]; 100 mg/kg, P=0.067
  lowering of LDH (cytotoxicity and tissue damage marker): 30%
[2]; 100 mg/kg, P=0.069
  reduction of TNF-a: 65%
[2]; 100 mg/kg, P=0.1
  reduction of total nitrite and nitrate: 40%
[2]; gavage 33 or 100 mg/kg, 20 h
  neutrophil infiltration: did not affect

## Cc1c(C)c2c(c(C)c1O)CC[C@@](C)(CCC[C@H](C)CCC[C@H](C)CCCC(C)C)O2 [alpha-T, alpha-tocopherol, reference compound]
[1]; 33 mg/kg alpha-T
  increased alpha-T level in the plasma and exudate: approximately 2 fold
[1]; P<0.05
  decrease of gamma-T in the exudate caused by alpha-T administration: 40%
  decrease of gamma-T in the plasma caused by alpha-T administration: ~55%
PGE2
  inhibitory effect on PGE2: weak to no inhibitory effect
[2]; 33 mg/kg
  effects on generation of eicosanoids and 8-isoprostane: did not show any significant effects

## alpha-tocotrienol [reference compound]
PGE2
  inhibitory effect on PGE2: weak to no inhibitory effect

## Cc1cc(O)cc2c1O[C@](C)(CCC[C@H](C)CCC[C@H](C)CCCC(C)C)CC2 [delta-T, Delta-tocopherol]
PGE2
  IC50: 2.5 to 5 µM

## CC(=O)Oc1ccccc1C(=O)O [aspirin, Acetylsalicylic acid]
[6]; doses of 100-150 mg/kg
  neutrophil infiltration: did not affect
  reduction of PGE2: 50-70%
[6]; higher doses, >200-300 mg/kg
  cell infiltration: inhibits cell infiltration
